Source: patent US9724408B2, “Compositions and methods for activating stimulator of interferon gene-dependent signalling” (ADURO BIOTECH, INC., priority 2013, dated 2017)

Tests used:
[1] = system: snake venom phosphodiesterase (SVPD)
hSTING (Q) = assay: IFNβ-LUC reporter in HEK293T cells expressing hSTING (Q); assay type: cell-based, human; conditions: 10 μM, digitonin permeabilization, 6 hrs, FIG. 14
Excerpt: To determine the responsiveness of the five known natural human STING variants (referred to as WT, REF, HAQ, AQ and Q) to the native and derivative molecules, a panel of human embryonic kidney (HEK) 293T cell lines that expressed the human STING alleles was generated. […] MSCV2.2 plasmids encoding hSTING(REF)-GFP, hSTING(WT)-GFP, hSTING(HAQ)-GFP, hSTING(Q)-GFP and mSTING(WT)-GFP were obtained from the Vance Laboratory at UC Berkeley. hSTING(AQ)-GFP was derived from hSTING(Q)-GFP using a QuickChange Site-Directed Mutagenesis kit (Stratagene). The sequence of the hSTING(REF) allele is also known as the Barber allele (Ishikawa, H., and Barber, G. N. (2008). Nature 455, 674-678), and has the NCBI Reference Sequence NP_938023.1. The amino acid difference between hSTING(REF) and the other WT, HAQ, AQ and Q human STING alleles are shown in FIG. 13, which is adapted from Yi et al., Plos One 8: e77846 (2013). Stable HEK 293T-derived cell lines expressing each of the individual human STING alleles were generated by FACS sorting of GFP positive cells using a Mo Flo cell sorter at the Cancer Research Laboratory Flow Cytometry Facility at UC Berkeley. 1×10^4 HEK293T STING cells were seeded in 96-well plates and transiently transfected (using Lipofectamine 2000) with 50 ng of a human IFN-β reporter plasmid (pLuc-IFN-β) expressing the human IFN-β promoter upstream of a luciferase reporter and 10 ng of TK-renilla for normalization. 24 hours later, cells were stimulated with native and synthetic CDN derivative molecules using digitonin permeabalization to ensure uniform uptake. Each STING cell line was stimulated with 10 μM of cyclic [G(3′,5′)pA(3′,5′)p] (cGAMP), cyclic [G(2′,5′)pA(3′,5′)p] (ML-cGAMP), Rp, Rp dithio cyclic [G(2′,5′)pA(3′,5′)p] […] (CDA), Rp, Rp dithio cyclic [A(3′,5′)pA(3′,5′)p] (RR-CDA), cyclic [A(2′,5′)pA(3′,5′)p] (ML-CDA), Rp, Rp dithio cyclic [A(2′,5′)pA(3′,5′)p] (ML RR-CDA), cyclic [G(3′,5′)pG(3′,5′)p] (CDG), Rp, Rp dithio cyclic [G(3′,5′)pG(3′,5′)p] (RR-CDG), cyclic [G(2′,5′)pG(3′,5′)p] (ML-CDG) or Rp, Rp dithio cyclic [G(2′,5′)pG(3′,5′)p] (ML RR-CDG) in 25 ul digitonin buffer (50 mM HEPES, 100 mM KCL, 3 mM MgCl2, 0.1 mM DTT, 85 mM Sucrose, 0.2% BSA, 1 mM ATP, 0.1 mM GTP, 10 ug/ml digitonin). After 20 min, the stimulation mixtures were removed and 200 ul of standard RPMI media was added. After stimulation for 6 hrs, cell lysates were prepared and reporter gene activity measured using the Dual Luciferase Assay System (Promega) on a Spectramax M3 luminometer.

Nuclease P1 (NP1) = molecular target: T1, Nuclease P1 (NP1) (Penicillium citrinum, UniProt P24289); assay: Resistance to Nuclease P1, read out in THP1-Blue ISG cells; conditions: 2.5 mU NP1, 2 hr at 37° C., then 50 μM on THP1-Blue ISG cells, FIG. 12
T1 sequence (P24289 1-270): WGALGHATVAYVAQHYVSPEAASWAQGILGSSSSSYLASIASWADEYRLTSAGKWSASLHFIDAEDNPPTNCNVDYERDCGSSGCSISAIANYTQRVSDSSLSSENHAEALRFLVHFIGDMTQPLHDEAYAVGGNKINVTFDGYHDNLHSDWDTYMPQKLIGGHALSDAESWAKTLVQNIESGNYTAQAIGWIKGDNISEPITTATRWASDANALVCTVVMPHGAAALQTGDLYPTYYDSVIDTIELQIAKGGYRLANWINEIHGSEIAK

hSTING (REF) = molecular target: T2, hSTING (REF) (Homo sapiens, UniProt Q86WV6); assay: IFNβ-LUC reporter in HEK293T cells expressing hSTING (REF); assay type: cell-based; conditions: 10 μM, digitonin permeabilization, 6 hrs, FIG. 14
T2 construct: GFP; expressed in transfected cells; plasmid from the Vance Laboratory, UC Berkeley
T2 sequence (Q86WV6 whole entry): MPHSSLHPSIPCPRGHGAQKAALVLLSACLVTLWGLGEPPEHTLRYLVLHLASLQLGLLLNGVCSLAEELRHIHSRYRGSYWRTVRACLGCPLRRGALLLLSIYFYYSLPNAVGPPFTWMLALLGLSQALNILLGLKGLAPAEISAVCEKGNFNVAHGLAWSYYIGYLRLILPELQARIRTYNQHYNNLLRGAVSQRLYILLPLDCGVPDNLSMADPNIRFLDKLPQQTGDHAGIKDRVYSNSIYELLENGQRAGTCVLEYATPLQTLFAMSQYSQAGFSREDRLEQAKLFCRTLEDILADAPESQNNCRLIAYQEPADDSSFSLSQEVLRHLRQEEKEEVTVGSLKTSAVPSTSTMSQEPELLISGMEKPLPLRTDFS
Procedure: MSCV2.2 plasmids encoding hSTING(REF)-GFP, hSTING(WT)-GFP, hSTING(HAQ)-GFP, hSTING(Q)-GFP and mSTING(WT)-GFP were obtained from the Vance Laboratory at UC Berkeley. hSTING(AQ)-GFP was derived from hSTING(Q)-GFP using a QuickChange Site-Directed Mutagenesis kit (Stratagene). […] 1×10^4 HEK293T STING cells were seeded in 96-well plates and transiently transfected (using Lipofectamine 2000) with 50 ng of a human IFN-β reporter plasmid (pLuc-IFN-β) expressing the human IFN-β promoter upstream of a luciferase reporter and 10 ng of TK-renilla for normalization. 24 hours later, cells were stimulated with native and synthetic CDN derivative molecules using digitonin permeabalization to ensure uniform uptake. Each STING cell line was stimulated with 10 μM of cyclic [G(3′,5′)pA(3′,5′)p] (cGAMP), cyclic [G(2′,5′)pA(3′,5′)p] […] (RR-CDA), cyclic [A(2′,5′)pA(3′,5′)p] […] (RR-CDG), cyclic [G(2′,5′)pG(3′,5′)p] […] (ML RR-CDG) in 25 ul digitonin buffer (50 mM HEPES, 100 mM KCL, 3 mM MgCl2, 0.1 mM DTT, 85 mM Sucrose, 0.2% BSA, 1 mM ATP, 0.1 mM GTP, 10 ug/ml digitonin). After 20 min, the stimulation mixtures were removed and 200 ul of standard RPMI media was added. After stimulation for 6 hrs, cell lysates were prepared and reporter gene activity measured using the Dual Luciferase Assay System (Promega) on a Spectramax M3 luminometer.

THP1-Blue™ ISG cells = assay: Type I interferon induction in THP1-Blue ISG reporter cells (QUANTI-Blue, A655); assay type: cell-based, human; conditions: 50 μM, mock treated, 16 hr incubation, FIG. 12
Procedure: To determine the relative level of type I interferon induced in human cells by each of the native and derivative molecules as a signature of adjuvant potency, 4×10^5 THP1-Blue™ ISG cells (a human monocyte cell line transfected with an IRF-inducible secreted embryonic alkaline phosphatase reporter gene (Invivogen) which express alkaline phosphatase under the control of a promoter comprised of five IFN-stimulated response elements) were incubated with 100 μM of cyclic [G(3′,5′)pG(3′,5′)p] (CDG), cyclic [G(2′,5′)pG(3′,5′)p] (mixed linkage, or ML-CDG), or HBSS for 30 minutes at 37° C. with 5% CO2. After 30 minutes, cells were washed and plated in 96-well dish in RPMI media containing 10% FBS, and incubated at 37° C. with 5% CO2. Cell culture supernatants from each sample were collected after overnight incubation, and 20 μL of the cell culture supernatants was added to 180 μL QUANTI-Blue reagent (Invivogen) and incubated for 45 minutes to evaluate type I interferon protein levels. Readings at Absorbance 655 nm were taken every 3 minutes using a Versa Max kinetic spectrophotometer (Molecular Diagnostics).
[…]. After 30 minutes, cells were washed and plated in 96-well dish in RPMI media containing 10% FBS, and incubated at 37° C. with 5% CO2. Cell culture supernatants from each sample were collected after overnight incubation, and 20 μL of the cell culture supernatants was added to 180 μL QUANTI-Blue reagent (Invivogen) and incubated for 45 minutes. Readings at Absorbance 655 nm were taken at 15 minutes using a SpectraMax spectrophotometer (Molecular Diagnostics).
The induction of type I interferon in human cells was measured to evaluate the potency of untreated and phosphodiesterase-treated oxo, Rp monothio and Rp, Rp dithio derivatives. […]. After 30 minutes, cells were washed and plated in a 96-well dish in RPMI media containing 10% FBS, and incubated at 37° C. with 5% CO2. Cell culture supernatants from each sample were collected after 16 hr incubation, and 20 μL of the cell culture supernatants was added to 180 μL QUANTI-Blue reagent (Invivogen) and incubated for 25 minutes to evaluate type I interferon protein levels. Readings at Absorbance 655 nm were measured with a Versa Max spectrophotometer (Molecular Diagnostics).

Molecule	type I interferon inducing activity after SVPD treatment [1]	IFNβ reporter response of hSTING (Q) (hSTING (Q))	type I interferon inducing activity after NP1 treatment (Nuclease P1 (NP1))	IFNβ reporter response of hSTING (REF) (hSTING (REF))	induction of type I interferon, untreated compounds (THP1-Blue™ ISG cells)
Nc1ncnc2c1ncn2[C@@H]1O[C@@H]2COP(=O)(O)O[C@H]3[C@@H](O)[C@H](n4cnc5c(N)ncnc54)O[C@@H]3COP(=O)(O)O[C@H]2[C@H]1O [CDA, cyclic[A(3′,5′)pA(3′,5′)p], reference compound]	lost activity	responded poorly	lost activity	responded poorly	
Nc1ncnc2c1ncn2C1OC2COP(=O)(O)OC3C(O)C(COP(=O)(S)OC2C1O)OC3n1cnc2c(N)ncnc21 (stereo not drawn) [ML R-CDA, monothio-cyclic-[A(2′,5′)pA(3′,5′)Rp]]	susceptible to SVPD treatment		retained activity after NP1 digestion		
Nc1nc2c(ncn2[C@@H]2O[C@@H]3COP(=O)(S)O[C@H]4[C@@H](O)[C@H](n5cnc6c(N)ncnc65)O[C@@H]4CO[P@@](=O)(S)O[C@@H]2[C@@H]3O)c(=O)[nH]1 (stereo partly drawn) [ML RR-cGAMP, dithio-[RP,RP]-cyclic-[G(2′,5′)pA(3′,5′)p]]		responsive to stimulation			
Nc1ncnc2c1ncn2C1OC2COP(=O)(O)OC3C(O)C(COP(=O)(O)OC2C1O)OC3n1cnc2c(N)ncnc21 (stereo not drawn) [ML-CDA, cyclic-[A(2′,5′)pA(3′,5′)p]]	lost activity		lost activity		
Nc1ncnc2c1ncn2[C@@H]1O[C@@H]2CO[P@@](O)(=S)O[C@H]3[C@@H](O)[C@H](n4cnc5c(N)ncnc54)O[C@@H]3CO[P@@](O)(=S)O[C@H]2[C@H]1O [RR-CDA, Rp, Rp dithio cyclic [A(3′,5′)pA(3′,5′)p], reference compound]	retain their potency		retain their potency		more potent inducers of type I interferon than the oxo
Nc1nc2c(ncn2[C@@H]2O[C@@H]3COP(=O)(O)O[C@H]4[C@@H](O)[C@H](n5cnc6c(N)ncnc65)O[C@@H]4COP(=O)(O)O[C@H]3[C@H]2O)c(=O)[nH]1 [cGAMP, cyclic [G(3′,5′)pA(3′,5′)p], reference compound]		responded poorly			
cyclic [CDG, cyclic [G(3′,5′)pG(3′,5′)p], reference compound]		responded poorly		responded poorly	
